Measured values from PMC11020896, “Development of a ^99mTc-labeled tetrazine for pretargeted SPECT imaging using an alendronic acid-based bone targeting model” (PLOS ONE, 2024).
Values belong to the molecule of their own block, whether it stands above or below them.

Assays:
[1] = tested on: Healthy Balb/c female mice; experiment: SPECT/CT quantitative image analysis of 99mTc-labeled Tzs (pretargeted with Aln-TCO, saline control, or directly targeted); format: in vivo; conditions: for blood pool activity: directly targeted Aln-TCO
Protocol: (§1) The study was conducted in compliance with the guidelines set by the Canadian Council on Animal Care (CCAC) and approved by the Animal Care Committee (ACC) at the University of British Columbia (A20-0132). Healthy Balb/c female mice (~25 g) were anesthetized using isoflurane delivered via a precision vaporizer (5% in oxygen for induction, between 1.5 and 2.5% in oxygen for maintenance) and received 100 μL of a 2 mg/kg solution of Aln-TCO in saline (pretargeted groups), or 100 μL saline (control groups) via intravenous injection. After 1 h, mice were anesthetized again and received another i.v. injection containing 100 μL of ^99mTc labeled Tzs in saline, with an average activity of 17.58 MBq, as well as a subcutaneous injection of Lactated Ringer’s solution (0.5 mL) to ensure hydration before each imaging scan. After the injection, a VECTor/CT multimodal preclinical scanner (MILabs, The Netherlands) equipped with a HEUHR-1 mm mouse pinhole collimator was used to obtain static whole-body images. The first scans were obtained with a single frame lasting 25 minutes, followed by scans at 2- and 6-hours post-injection, each with a single frame lasting 40 and 50 minutes, respectively.
Throughout the scanning process, mice were maintained under isoflurane anesthesia and kept warm with a heating pad to ensure constant body temperature. Following each SPECT acquisition, a whole-body CT scan was performed to obtain anatomical information and the two images were registered. The ^99mTc photopeak window was centered at 140 keV with a 25% energy window width. SPECT image reconstructions were carried out using a pixel-ordered subset expectation maximization (POSEM) algorithm with 16 subsets, 6 iterations, and an isotropic 0.4 mm voxel grid to enable quantitative analysis. The images were decay corrected, and after CT registration, attenuation correction was applied. For visual representation, the reconstructed volumes of SPECT scans were post-filtered with a 3D Gaussian filter. CT scans were conducted using a tube setting of 55 kV and 615 μA, and 2 frames of 180 projections over 360 degrees were captured in step and shoot rotation mode. The acquired projection data was reconstructed using SkyScan NRecon software to generate a 3D CT image on 0.169 mm^3 voxel size. Volumes of interest (VOIs), in the left ventricle of the heart (blood pool), liver (n = 3), bladder, kidney (n = 2), shoulder and knee joint (n = 2, respectively) were manually defined using AMIDE [49] (v.1.0.5) to determine the time activity pattern per target organ. The average organ activity per volume was obtained from the SPECT images and the %ID/g of tissue were extracted from each organ. To relate the scanner units (counts/pixel) to radioactivity concentration (MBq/mL), a calibration factor was determined scanning a source with a known concentration of ^99mTc. Following the last time imaging time point (6 h, except mice injected with ^99mTc-3, which were sacrificed 24 h p.i.), mice were sacrificed via CO2 asphyxiation under isoflurane anesthesia. Blood was recovered via cardiac puncture and organs of interest were dissected out, cleaned and weighed. The bone uptake of the shoulder was measured by measuring the activity of scapula and humerus, cut below the elbow joint, while knee uptake was measured in the femur, cut below the knee joint. […] The activity was quantified on a calibrated Cobra II Autogamma counter (Packard Instruments, USA) and decay corrected to the time of injection. […]

[2] = tested on: Healthy Balb/c female mice; experiment: Post-mortem (ex vivo) biodistribution after last imaging time point, gamma counter; format: in vivo
Protocol: as §1
Throughout the scanning process, mice were maintained under isoflurane anesthesia and kept warm with a heating pad to ensure constant body temperature. Following each SPECT acquisition, a whole-body CT scan was performed to obtain anatomical information and the two images were registered. The ^99mTc photopeak window was centered at 140 keV with a 25% energy window width. SPECT image reconstructions were carried out using a pixel-ordered subset expectation maximization (POSEM) algorithm with 16 subsets, 6 iterations, and an isotropic 0.4 mm voxel grid to enable quantitative analysis. The images were decay corrected, and after CT registration, attenuation correction was applied. For visual representation, the reconstructed volumes of SPECT scans were post-filtered with a 3D Gaussian filter. CT scans were conducted using a tube setting of 55 kV and 615 μA, and 2 frames of 180 projections over 360 degrees were captured in step and shoot rotation mode. The acquired projection data was reconstructed using SkyScan NRecon software to generate a 3D CT image on 0.169 mm^3 voxel size. Volumes of interest (VOIs), in the left ventricle of the heart (blood pool), liver (n = 3), bladder, kidney (n = 2), shoulder and knee joint (n = 2, respectively) were manually defined using AMIDE [49] (v.1.0.5) to determine the time activity pattern per target organ. The average organ activity per volume was obtained from the SPECT images and the %ID/g of tissue were extracted from each organ. To relate the scanner units (counts/pixel) to radioactivity concentration (MBq/mL), a calibration factor was determined scanning a source with a known concentration of ^99mTc. Following the last time imaging time point (6 h, except mice injected with ^99mTc-3, which were sacrificed 24 h p.i.), mice were sacrificed via CO2 asphyxiation under isoflurane anesthesia. Blood was recovered via cardiac puncture and organs of interest were dissected out, cleaned and weighed. The bone uptake of the shoulder was measured by measuring the activity of scapula and humerus, cut below the elbow joint, while knee uptake was measured in the femur, cut below the knee joint. Bone samples were thoroughly cleaned from muscle and connective tissue. The activity was quantified on a calibrated Cobra II Autogamma counter (Packard Instruments, USA) and decay corrected to the time of injection.

[3] = directly targeted Aln-TCO, biodistribution 6 h p.i., ratio of %ID/g
[4] = directly targeted Aln-TCO, sacrificed 6 h p.i.

difference in blood pool activity, 1* vs 1a ([1]; 6 h p.i.): 15 fold
blood pool activity ([1]; image analysis, 0 h): 27.35 ± 3.79 %ID/g
liver activity over time ([1]; image analysis, 0-6 h, directly targeted): increase over time
blood pool activity ([1]; image analysis, 6 h p.i.): 3.66 ± 0.65 %ID/g
Knee/Blood ratio [2, 3]: 2.39 ± 0.09
Knee/Liver ratio [2, 3]: 0.17 ± 0.09
Shoulder/Blood ratio [2, 3]: 1.29 ± 0.30
Shoulder/Liver ratio [2, 3]: 0.09 ± 0.30
Bladder activity, post-mortem biodistribution [2, 4]: 1.22 ± 0.04 % ID/g
Blood activity, post-mortem biodistribution [2, 4]: 3.82 ± 0.32 % ID/g
Brain activity, post-mortem biodistribution [2, 4]: 0.10 ± 0.01 % ID/g
Heart activity, post-mortem biodistribution [2, 4]: 2.87 ± 0.27 % ID/g
Intestine activity, post-mortem biodistribution [2, 4]: 3.85 ± 0.49 % ID/g
Kidney activity, post-mortem biodistribution [2, 4]: 9.04 ± 0.60 % ID/g
Knee activity, post-mortem biodistribution [2, 4]: 9.13 ± 0.73 % ID/g
Liver activity, post-mortem biodistribution [2, 4]: 54.39 ± 4.03 % ID/g
Lung activity, post-mortem biodistribution [2, 4]: 6.70 ± 0.85 % ID/g
Muscle activity, post-mortem biodistribution [2, 4]: 0.31 ± 0.01 % ID/g
Pancreas activity, post-mortem biodistribution [2, 4]: 1.20 ± 0.20 % ID/g
Shoulder activity, post-mortem biodistribution [2, 4]: 4.91 ± 1.43 % ID/g
Spleen activity, post-mortem biodistribution [2, 4]: 38.03 ± 4.69 % ID/g
Stomach activity, post-mortem biodistribution [2, 4]: 1.70 ± 0.10 % ID/g
uptake in liver and spleen ([2]; directly targeted, 6 h p.i.): strong uptake
SMILES: O=C(O)CN(CCNC(=O)CCCC(=O)Nc1ccc(-c2nnc(-c3ccccn3)nn2)nc1)Cc1cccc(C(=O)O)n1 (99mTc complex, metal not drawn) [Tz 1, 6-(((carboxymethyl)(2-(5-oxo-5-((6-(6-(pyridin-2-yl)-1,2,4,5-tetrazin-3-yl)pyridin-3-yl)amino)pentanamido)ethyl)amino)methyl)picolinic acid]

SMILES: O=C(O)CN(CCNC(=O)CCOCCOCCOCCOCCOCCOCCOCCOCCNC(=O)CCCC(=O)Nc1ccc(-c2nncnn2)cc1)Cc1cccc(C(=O)O)n1 [Tz 4, 6-(38-((4-(1,2,4,5-tetrazin-3-yl)phenyl)amino)-2-(carboxymethyl)-6,34,38-trioxo-9,12,15,18,21,24,27,30-octaoxa-2,5,33-triazaoctatriacontyl)picolinic acid]
bone accumulation, pretargeted vs. non-targeted group ([1]; image analysis of shoulder and knee at 0, 2 and 6 h p.i.): did not show statistically significant bone uptake at any time point compared to the saline control
